These are literature values, as cited in patent publication US20090246264A1, “Transdermal Tobacco Alkaloid Patch” (Fertin Pharma, priority 2005, published 2009).

Structures are written as SMILES.

The conditions of the series: pure nicotine placed on the skin of an ordinary human being.

With `CN1CCCC1c1cccnc1` (stereo not shown) [nicotine], the lethal dose is given as 50 mg.
